Consider one molecule from paper PMC6934184, “Selective DNA-PKcs inhibition extends the therapeutic index of localized radiotherapy and chemotherapy” (The Journal of Clinical Investigation, 2019).

The assay has as its target T1, IGF1R (Homo sapiens, UniProt P08069).
T1 construct: purchased Thermo Fisher Scientific (Life Technologies) SelectScreen
The assay can be described thus: SelectScreen Z'LYTE. In kind it is biochemical. In outline: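 SelectScreen broad panel; activity (Z'LYTE, Adapta) plus binding formats. ATP: Km app for CSF1R Z'LYTE; 10 for CAMK1 Adapta. Readout = % per kinase.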

T1 sequence (P08069 31-1367): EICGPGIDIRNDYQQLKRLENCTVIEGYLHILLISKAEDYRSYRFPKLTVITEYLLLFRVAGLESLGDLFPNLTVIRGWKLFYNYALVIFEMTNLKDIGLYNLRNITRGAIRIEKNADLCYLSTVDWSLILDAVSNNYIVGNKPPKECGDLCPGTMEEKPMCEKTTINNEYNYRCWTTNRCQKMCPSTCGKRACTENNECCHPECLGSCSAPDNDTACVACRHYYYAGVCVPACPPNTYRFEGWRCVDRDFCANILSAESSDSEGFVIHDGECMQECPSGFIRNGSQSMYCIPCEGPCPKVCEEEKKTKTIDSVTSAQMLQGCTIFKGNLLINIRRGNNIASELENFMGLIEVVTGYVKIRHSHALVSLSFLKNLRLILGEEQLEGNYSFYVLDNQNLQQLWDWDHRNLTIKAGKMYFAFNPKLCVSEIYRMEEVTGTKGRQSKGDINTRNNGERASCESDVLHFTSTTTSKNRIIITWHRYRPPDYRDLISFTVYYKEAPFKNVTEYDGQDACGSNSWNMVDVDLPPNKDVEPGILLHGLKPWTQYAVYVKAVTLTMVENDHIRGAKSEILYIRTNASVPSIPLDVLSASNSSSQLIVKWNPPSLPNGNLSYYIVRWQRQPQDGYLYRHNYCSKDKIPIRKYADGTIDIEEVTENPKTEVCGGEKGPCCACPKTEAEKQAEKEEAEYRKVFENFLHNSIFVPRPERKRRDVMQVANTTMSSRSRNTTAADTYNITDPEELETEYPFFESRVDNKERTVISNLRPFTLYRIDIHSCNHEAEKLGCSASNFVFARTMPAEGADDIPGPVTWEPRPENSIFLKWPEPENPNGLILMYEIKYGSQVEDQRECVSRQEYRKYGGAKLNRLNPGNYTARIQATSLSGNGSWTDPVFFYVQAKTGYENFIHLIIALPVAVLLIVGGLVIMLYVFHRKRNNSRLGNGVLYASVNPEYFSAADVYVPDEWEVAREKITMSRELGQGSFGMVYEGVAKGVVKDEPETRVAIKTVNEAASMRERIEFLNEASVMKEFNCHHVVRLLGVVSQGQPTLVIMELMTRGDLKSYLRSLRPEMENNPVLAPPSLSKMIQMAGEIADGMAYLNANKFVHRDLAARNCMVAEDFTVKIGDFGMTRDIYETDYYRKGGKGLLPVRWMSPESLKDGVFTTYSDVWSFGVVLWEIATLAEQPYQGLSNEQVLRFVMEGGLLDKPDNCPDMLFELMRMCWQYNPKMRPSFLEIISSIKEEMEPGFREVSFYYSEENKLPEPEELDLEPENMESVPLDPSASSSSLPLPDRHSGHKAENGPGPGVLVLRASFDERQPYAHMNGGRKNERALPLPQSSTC

For `CN(C(=O)CN1CCOCC1)c1ccc2sc3c(-c4cccc5c(=O)cc(N6CC7CCC(C6)O7)oc45)cccc3c2c1` [NU5455], the inhibition at 1 µM was found to be 9.7%.
